Patent US20230220331A1, “TEMPORARY TREATMENT MEDIUM, TREATMENT KIT, EMBRYOGENESIS ARREST INHIBITOR, EMBRYOGENESIS ARREST INHIBITORY METHOD, DEVELOPMENTAL ENGINEERING PRODUCT PREPARATION METHOD, TRANSPLANTATION METHOD, THERAPEUTIC METHOD, AND DEVELOPMENTAL ENGINEERING PRODUCT” (priority 2020, published 2023)

System: frozen embryos of C57BL/6J
Test: Recovery of re-frozen and re-thawed blastocysts, cytochalasin B vs Y-27632 (Treatment Example 10)
Assay type: cell-based, mouse
Settings: for RECOVERY RATE about 3 hours later / RECOVERY RATE about 24 hours later / RECOVERY RATE immediately after thawing / number of embryos ABOUT 3 HOURS LATER / number of embryos ABOUT 24 HOURS LATER / number of embryos IMMEDIATELY AFTER THAWING: 19 embryos
Description: In this treatment example, as in the above-mentioned treatment example 9, the normal medium (hereinafter, referred to as “Y− medium” as in the treatment example 9), the temporary treatment medium to which Y-27632 is added (hereinafter, referred to as “Y+ medium” as in the treatment example 9), and a CB-added medium (hereinafter, referred to as “CB+ medium”) were used. The concentrations of CB in the CB+ medium were 5 μM and 10 μM are prepared. As the manipulation, the recovery rates when frozen embryos were thawed and developed, then re-frozen in blastocysts and re-thawed were compared.
For the treatment, 107 frozen embryos of C57BL/6J (provided from CLEA Japan, Inc.) at the 2-cell stage were used. Firstly, the frozen embryos at the 2-cell stage were thawed and blastocysts were developed as they were in a normal medium.
Then, the blastocysts were then transferred to each of the above media and placed for 30 minutes. Then, the embryos were transferred to Y− medium again and placed for 30 minutes.
Then, each embryo was frozen.
Then, the embryos were then thawed and placed in M2 medium for 10 minutes.
Then, each embryo was evenly divided and placed on the medium for 1 hour.
The embryos were observed by returning to the Y− medium again. This observation was performed immediately after thawing, 3 hours later, and 24 hours later.

## C=C1[C@@H](C)[C@H]2[C@H](Cc3ccccc3)NC(=O)[C@]23OC(=O)/C=C/[C@H](O)CCC[C@@H](C)C/C=C/[C@H]3[C@@H]1O [CB+ mWM, 2H-Oxacyclotetradecino[2,3-d]isoindole-2,18(5H)-dione, 6,7,8,9,10,12a,13,14,15,15a,16,17-dodecahydro-5,13-dihydroxy-9,15-dimethyl-14-methyl ene-16-(phenylmethyl)-, (3E,5R,9R,11E,12aS,13S,15S,15aS,16S,18aS)-]
5 μM in mWM
  RECOVERY RATE about 3 hours later: 94%
  RECOVERY RATE about 24 hours later: 78%
  RECOVERY RATE immediately after thawing: 26%
  number of embryos ABOUT 3 HOURS LATER: 18
  number of embryos ABOUT 24 HOURS LATER: 15
  number of embryos IMMEDIATELY AFTER THAWING: 5
10 μM in mWM
  RECOVERY RATE about 3 hours later: 52%
  RECOVERY RATE about 24 hours later: 63%
  RECOVERY RATE immediately after thawing: 10%
  number of embryos ABOUT 3 HOURS LATER: 10
  number of embryos ABOUT 24 HOURS LATER: 12
  number of embryos IMMEDIATELY AFTER THAWING: 2
After 24 hours
  recovery rate of 5 μM higher than that of 10 μM: 15%
